The text below walks through data of patent publication US7645588B2, “Composition comprising a cell comprising a STIM1 protein and an agent that modulates intracellular calcium and methods of use” (CalciMedica, Inc., priority 2003, dated 2010).

Data set [1] concerns store-operated calcium entry (SOCE). The conditions noted are these: read-out: IC50 for inhibition of calcium entry; HEK-Zeo control cells; thapsigargin-mediated store depletion followed by readdition of external calcium.
Method: The relative cation permeability was assessed in HEK-Zeo and in HEK[STIM1] cells. Cells were loaded with Fluo-4 and treated with thapsigargin to discharge intracellular Ca^2+ stores (HEK-Zeo cells), or vehicle-treated (both HEK-Zeo and HEK[STIM1] cells). After 15 minutes, 10 mM BaCl2 (final concentration), 10 mM SrCl2 (final concentration), or 1.8 mM CaCl2 (final concentration) was added to elicit cation influx. To quantify the rate of cation influx, the first 30 seconds of data following cation addition was analyzed by linear regression.
The test system of a further data set is STIM1-induced Ca2+ entry. The conditions noted are these: HEK[STIM1] cells, absence of store depletion. As to the method:
(§1) For stable cell lines overexpressing STIM1, pcDNA[STIM1/542-5] was transfected into 3×10^5 HEK293 cells using Effectene (QIAGEN) transfection reagent following the manufacturer's protocol. Forty-eight hours after transfection, cells were harvested and replated under selection with 250 μg/ml Zeocin (Invitrogen). Colonies were selected, amplified, and evaluated for expression of STIM1 mRNA and protein by RT-PCR and western blot, respectively. Limiting dilution of the STIM1 overexpressing colonies generated individual clones.

The subject of data set [2] is store-operated calcium entry (SOCE). The conditions noted are these: read-out: IC50 for inhibition of calcium entry; HEK[STIM1] cells; thapsigargin-mediated store depletion followed by readdition of external calcium. As to the method: as §1
In a further data set the test system is Jurkat T cells. The experiment in a line: IL-2 secretion from Jurkat T cells (ELISA). The format is cell-based, human. The note with it: Jurkat clone 4A5; 2.5 μg/ml PHA + 80 nM TPA for 20 hours. An excerpt:
To test this prediction, a stable Jurkat T cell line expressing a short hairpin siRNA to suppress expression of STIM1 was generated as follows. Oligonucleotides corresponding to the STIM1-1140 siRNA (sense oligo, 5′-GATCCCGGCTCTGGATACAGTGCTCTTCAAGAGAGAGCACTGTATCCAGAGCCTTTTTTGGAAA-3′ SEQ ID NO: 99; antisense oligo, 5′-AGCTTTTCCAAAAAAGGCTCTGGATACAGTGCTCTCTCTTGAAGAGCACTGTATCCAGAGCCGG-3′ SEQ ID NO: 100) were annealed and ligated into pSilencer 2.1-U6 neo (Ambion) according to the manufacturer's protocol. Correct inserts were verified by DNA sequencing. For the control, a non-silencing scrambled siRNA (Negative Control oligo; Ambion) was generated as above. 2×10^6 Jurkat T cells were electroporated with 5 μg plasmid using a Bio-Rad Gene Pulser (140V, 30 msec, 4 pulses). Two days after transfection, cells were harvested and resuspended in media containing G-418 selection at a concentration of 1×10^4 cells/ml. 1 ml of cells/well was plated in 24-well plates. […]
To measure IL-2 secretion from Jurkat T cells, cells were plated in a 96 well plate at a density of 1.5×10^5 cells/well. […] The media was collected and analyzed for IL-2 levels by ELISA (BioSource) according to the manufacturer's protocols. […]

Read-outs that look alike come from different tables or passages of the source.

Usually IC50 stands for the concentration that inhibits the measured activity by half. `NCCOB(c1ccccc1)c1ccccc1` [2-APB, 2-aminoethoxydiphenyl borate]: the results for the IC50 (in data set [1]; in the data set on STIM1-induced Ca2+ entry (read-out: IC50 for inhibition of constitutive calcium entry); in data set [2]) were 11.8 µM, 10.8 µM and 10.5 µM, respectively. Also, the “effect on calcium entry at lower concentrations” value with STIM1-induced Ca2+ entry (lower concentrations of 2-APB (biphasic effect)) is recorded as “potentiated”.

B1: STIM1-1140 short hairpin siRNA: Short hairpin siRNA corresponding to STIM1-1140, expressed from pSilencer 2.1-U6 neo in stable Jurkat clone 4A5 (nucleic acid)
chain 1: GATCCCGGCTCTGGATACAGTGCTCTTCAAGAGAGAGCACTGTATCCAGAGCCTTTTTTGGAAA
chain 2: AGCTTTTCCAAAAAAGGCTCTGGATACAGTGCTCTCTCTTGAAGAGCACTGTATCCAGAGCCGG
modifications: target site or template, no part of the molecule
Take B1: the “secretion of IL-2 upon stimulation” value in the data set on Jurkat T cells is listed as “completely blocked”.
